Source: the OligoGym collection
Values joined by “and” are separate entries in the source; they are usually repeats but may differ in a detail not shown here. Equal entries are not always repeated. HELM strings list units from the 5' end as sugar, base in round brackets, then linkage (d deoxyribose, r ribose, m 2'-O-methyl, p phosphodiester). Methylation of C is not given here. [moe] = 2'-O-(2-methoxyethyl) (MOE); [cEt] = constrained ethyl (cEt); [sp] = phosphorothioate linkage

Target: HBV
Settings: ASO

Row | Substance | target mRNA inhibition (HepG2, 0.07 µM) | also measured
1 | RNA1{[moe](G)[sp].[cEt](A)[sp].[cEt](A)[sp].d(G)[sp].d(A)[sp].d(T)[sp].d(G)[sp].d(A)[sp].d(G)[sp].d(G)[sp].d(C)[sp].d(A)[sp].d(T)[sp].[cEt](A)[sp].[cEt](G)[sp].[moe](C)}$$$$V2.0 | 69% and 66% | 
2 | RNA1{[moe](G)[sp].[cEt](A)[sp].[cEt](A)[sp].d(G)[sp].d(T)[sp].d(C)[sp].d(C)[sp].d(A)[sp].d(C)[sp].d(C)[sp].d(A)[sp].d(C)[sp].d(G)[sp].[cEt](A)[sp].[cEt](G)[sp].[moe](T)}$$$$V2.0 | 59% and 53% | 
3 | RNA1{[moe](G)[sp].[cEt](A)[sp].[cEt](G)[sp].d(A)[sp].d(A)[sp].d(G)[sp].d(T)[sp].d(C)[sp].d(C)[sp].d(A)[sp].d(C)[sp].d(C)[sp].d(A)[sp].[cEt](C)[sp].[cEt](G)[sp].[moe](A)}$$$$V2.0 | 62% and 54% | 
4 | RNA1{[moe](G)[sp].[cEt](A)[sp].d(A)[sp].d(C)[sp].d(A)[sp].d(A)[sp].d(A)[sp].d(T)[sp].d(G)[sp].d(G)[sp].d(C)[sp].d(A)[sp].[cEt](C)[sp].[moe](T)[sp].[cEt](A)[sp].[moe](G)}$$$$V2.0 | 75% and 79% | 
5 | RNA1{[moe](G)[sp].[cEt](A)[sp].d(A)[sp].d(C)[sp].d(T)[sp].d(G)[sp].d(G)[sp].d(A)[sp].d(G)[sp].d(C)[sp].d(C)[sp].d(A)[sp].[cEt](C)[sp].[moe](C)[sp].[cEt](A)[sp].[moe](G)}$$$$V2.0 | 68% and 56% | 
6 | RNA1{[moe](G)[sp].[cEt](A)[sp].d(A)[sp].d(G)[sp].d(C)[sp].d(G)[sp].d(A)[sp].d(A)[sp].d(G)[sp].d(T)[sp].d(G)[sp].d(C)[sp].[cEt](A)[sp].[moe](C)[sp].[cEt](A)[sp].[moe](C)}$$$$V2.0 | 74% and 76% | 
7 | RNA1{[moe](G)[sp].[cEt](A)[sp].d(G)[sp].d(A)[sp].d(A)[sp].d(G)[sp].d(T)[sp].d(C)[sp].d(C)[sp].d(A)[sp].d(C)[sp].d(C)[sp].[cEt](A)[sp].[moe](C)[sp].[cEt](G)[sp].[moe](A)}$$$$V2.0 | 34% and 43% | 
8 | RNA1{[moe](G)[sp].[cEt](C)[sp].[cEt](A)[sp].d(C)[sp].d(A)[sp].d(G)[sp].d(C)[sp].d(T)[sp].d(T)[sp].d(G)[sp].d(G)[sp].d(A)[sp].d(G)[sp].[cEt](G)[sp].[cEt](C)[sp].[moe](T)}$$$$V2.0 | 27% and 12% | 
9 | RNA1{[moe](G)[sp].[cEt](C)[sp].[cEt](A)[sp].d(T)[sp].d(A)[sp].d(G)[sp].d(C)[sp].d(A)[sp].d(G)[sp].d(C)[sp].d(A)[sp].d(G)[sp].d(G)[sp].[cEt](A)[sp].[cEt](T)[sp].[moe](G)}$$$$V2.0 | 67% and 71% | 
10 | RNA1{[moe](G)[sp].[cEt](C)[sp].d(A)[sp].d(G)[sp].d(A)[sp].d(G)[sp].d(G)[sp].d(T)[sp].d(G)[sp].d(A)[sp].d(A)[sp].d(G)[sp].[cEt](C)[sp].[moe](G)[sp].[cEt](A)[sp].[moe](A)}$$$$V2.0 | 80% and 85% | target mRNA inhibition (HepG2, 0.0092593 µM): 21%; target mRNA inhibition (HepG2, 0.0277778 µM): 48%; target mRNA inhibition (HepG2, 0.0833333 µM): 74%; target mRNA inhibition (HepG2, 0.25 µM): 88%
11 | RNA1{[moe](G)[sp].[cEt](G)[sp].[cEt](T)[sp].d(G)[sp].d(A)[sp].d(A)[sp].d(G)[sp].d(C)[sp].d(G)[sp].d(A)[sp].d(A)[sp].d(G)[sp].d(T)[sp].[cEt](G)[sp].[cEt](C)[sp].[moe](A)}$$$$V2.0 | 79% and 75% | 
12 | RNA1{[moe](G)[sp].[cEt](G)[sp].d(A)[sp].d(G)[sp].d(T)[sp].d(T)[sp].d(C)[sp].d(C)[sp].d(G)[sp].d(C)[sp].d(A)[sp].d(G)[sp].[cEt](T)[sp].[moe](A)[sp].[cEt](T)[sp].[moe](G)}$$$$V2.0 | 78% and 87% | target mRNA inhibition (HepG2, 0.0092593 µM): 12%; target mRNA inhibition (HepG2, 0.0277778 µM): 49%; target mRNA inhibition (HepG2, 0.0833333 µM): 79%; target mRNA inhibition (HepG2, 0.25 µM): 89%
13 | RNA1{[moe](G)[sp].[cEt](G)[sp].d(C)[sp].d(A)[sp].d(T)[sp].d(A)[sp].d(G)[sp].d(C)[sp].d(A)[sp].d(G)[sp].d(C)[sp].d(A)[sp].[cEt](G)[sp].[moe](G)[sp].[cEt](A)[sp].[moe](T)}$$$$V2.0 | 74% and 75% | 
14 | RNA1{[moe](G)[sp].[moe](A)[sp].[moe](A)[sp].[moe](C)[sp].[moe](C)[sp].d(A)[sp].d(C)[sp].d(T)[sp].d(G)[sp].d(A)[sp].d(A)[sp].d(C)[sp].d(A)[sp].d(A)[sp].[moe](A)[sp].[moe](T)[sp].[moe](G)}$$$$V2.0 | 48% and 27% | 
15 | RNA1{[moe](G)[sp].[moe](A)[sp].[moe](A)[sp].[moe](G)[sp].[moe](C)[sp].d(G)[sp].d(A)[sp].d(A)[sp].d(G)[sp].d(T)[sp].d(G)[sp].d(C)[sp].d(A)[sp].d(C)[sp].[moe](A)[sp].[moe](C)[sp].[moe](G)}$$$$V2.0 | 80% and 58% | 
16 | RNA1{[moe](G)[sp].[moe](A)[sp].[moe](A)[sp].[moe](G)[sp].d(C)[sp].d(G)[sp].d(A)[sp].d(A)[sp].d(G)[sp].d(T)[sp].d(G)[sp].d(C)[sp].d(A)[sp].[moe](C)[sp].[moe](A)[sp].[moe](C)[sp].[moe](G)}$$$$V2.0 | 65% and 57% | 

Row | Substance | target mRNA inhibition (HepG2, 0.07 µM) | also measured
17 | RNA1{[moe](G)[sp].[moe](A)[sp].[moe](A)[sp].d(C)[sp].d(T)[sp].d(G)[sp].d(G)[sp].d(A)[sp].d(G)[sp].d(C)[sp].d(C)[sp].d(A)[sp].[moe](C)[sp].[moe](C)[sp].[moe](A)[sp].[moe](G)[sp].[moe](C)}$$$$V2.0 | 65% and 51% | 
18 | RNA1{[moe](G)[sp].[moe](A)[sp].[moe](A)[sp].d(G)[sp].d(T)[sp].d(C)[sp].d(C)[sp].d(A)[sp].d(C)[sp].d(C)[sp].d(A)[sp].d(C)[sp].d(G)[sp].[cEt](A)[sp].[cEt](G)[sp].[cEt](T)}$$$$V2.0 | 34% and 33% | 
19 | RNA1{[moe](G)[sp].[moe](A)[sp].[moe](G)[sp].[moe](G)[sp].d(C)[sp].d(A)[sp].d(T)[sp].d(A)[sp].d(G)[sp].d(C)[sp].d(A)[sp].d(G)[sp].d(C)[sp].[moe](A)[sp].[moe](G)[sp].[moe](G)}$$$$V2.0 | 45% and 50% | 
20 | RNA1{[moe](G)[sp].[moe](A)[sp].[moe](G)[sp].[moe](G)[sp].d(T)[sp].d(G)[sp].d(A)[sp].d(A)[sp].d(G)[sp].d(C)[sp].d(G)[sp].d(A)[sp].d(A)[sp].[moe](G)[sp].[moe](T)[sp].[moe](G)[sp].[moe](C)}$$$$V2.0 | 63% and 54% | 
21 | RNA1{[moe](G)[sp].[moe](A)[sp].[moe](G)[sp].d(T)[sp].d(T)[sp].d(C)[sp].d(C)[sp].d(G)[sp].d(C)[sp].d(A)[sp].d(G)[sp].d(T)[sp].[moe](A)[sp].[moe](T)[sp].[moe](G)[sp].[moe](G)[sp].[moe](A)}$$$$V2.0 | 61% and 62% | 
22 | RNA1{[moe](G)[sp].[moe](A)[sp].[moe](T)[sp].[moe](G)[sp].[moe](A)[sp].[moe](G)[sp].d(G)[sp].d(C)[sp].d(A)[sp].d(T)[sp].d(A)[sp].d(G)[sp].d(C)[sp].d(A)[sp].d(G)[sp].[moe](C)[sp].[moe](A)}$$$$V2.0 | 63% and 44% | 
23 | RNA1{[moe](G)[sp].[moe](A)[sp].[moe](T)[sp].[moe](G)[sp].d(A)[sp].d(G)[sp].d(G)[sp].d(C)[sp].d(A)[sp].d(T)[sp].d(A)[sp].d(G)[sp].d(C)[sp].[moe](A)[sp].[moe](G)[sp].[moe](C)[sp].[moe](A)}$$$$V2.0 | 0% and 13% | 
24 | RNA1{[moe](G)[sp].[moe](A)[sp].[moe](T)[sp].d(G)[sp].d(A)[sp].d(G)[sp].d(G)[sp].d(C)[sp].d(A)[sp].d(T)[sp].d(A)[sp].d(G)[sp].[moe](C)[sp].[moe](A)[sp].[moe](G)[sp].[moe](C)[sp].[moe](A)}$$$$V2.0 | 51% | 
25 | RNA1{[moe](G)[sp].[moe](A)[sp].[moe](T)[sp].d(G)[sp].d(A)[sp].d(G)[sp].d(G)[sp].d(C)[sp].d(A)[sp].d(T)[sp].d(A)[sp].d(G)[sp].[moe](C)[sp].[moe](A)[sp].[moe](G)[sp].[moe](C)}$$$$V2.0 | 39% and 38% | 
26 | RNA1{[moe](G)[sp].[moe](A)[sp].d(A)[sp].d(C)[sp].d(C)[sp].d(A)[sp].d(C)[sp].d(T)[sp].d(G)[sp].d(A)[sp].d(A)[sp].[moe](C)[sp].[moe](A)[sp].[moe](A)[sp].[moe](A)[sp].[moe](T)}$$$$V2.0 | 37% and 25% | 
27 | RNA1{[moe](G)[sp].[moe](A)[sp].d(A)[sp].d(C)[sp].d(T)[sp].d(G)[sp].d(G)[sp].d(A)[sp].d(G)[sp].d(C)[sp].d(C)[sp].[moe](A)[sp].[moe](C)[sp].[moe](C)[sp].[moe](A)[sp].[moe](G)[sp].[moe](C)}$$$$V2.0 | 70% and 69% | 
28 | RNA1{[moe](G)[sp].[moe](A)[sp].d(A)[sp].d(G)[sp].d(C)[sp].d(G)[sp].d(A)[sp].d(A)[sp].d(G)[sp].d(T)[sp].d(G)[sp].[moe](C)[sp].[moe](A)[sp].[moe](C)[sp].[moe](A)[sp].[moe](C)[sp].[moe](G)}$$$$V2.0 | 79% and 74% | 
29 | RNA1{[moe](G)[sp].[moe](A)[sp].d(G)[sp].d(A)[sp].d(A)[sp].d(G)[sp].d(T)[sp].d(C)[sp].d(C)[sp].d(A)[sp].d(C)[sp].[moe](C)[sp].[moe](A)[sp].[moe](C)[sp].[moe](G)[sp].[moe](A)[sp].[moe](G)}$$$$V2.0 | 35% and 21% | 
30 | RNA1{[moe](G)[sp].[moe](A)[sp].d(G)[sp].d(G)[sp].d(C)[sp].d(A)[sp].d(T)[sp].d(A)[sp].d(G)[sp].d(C)[sp].d(A)[sp].[moe](G)[sp].[moe](C)[sp].[moe](A)[sp].[moe](G)[sp].[moe](G)[sp].[moe](A)}$$$$V2.0 | 64% and 47% | 
31 | RNA1{[moe](G)[sp].[moe](A)[sp].d(G)[sp].d(T)[sp].d(T)[sp].d(C)[sp].d(C)[sp].d(G)[sp].d(C)[sp].d(A)[sp].d(G)[sp].[moe](T)[sp].[moe](A)[sp].[moe](T)[sp].[moe](G)[sp].[moe](G)[sp].[moe](A)}$$$$V2.0 | 78% and 66% | 
32 | RNA1{[moe](G)[sp].[moe](A)[sp].d(T)[sp].d(G)[sp].d(A)[sp].d(G)[sp].d(G)[sp].d(C)[sp].d(A)[sp].d(T)[sp].d(A)[sp].[moe](G)[sp].[moe](C)[sp].[moe](A)[sp].[moe](G)[sp].[moe](C)[sp].[moe](A)}$$$$V2.0 | 72% and 65% | 
